These are literature values, as cited in patent publication US20240115666A1, “COMPOSITIONS AND METHODS FOR REDUCING GAMMA-GLUTAMYLTRANSFERASE LEVELS” (Lile Method Research, LLC, priority 2022, published 2024).

On to `N[C@@H](CCC(=O)N[C@@H](CS)C(=O)NCC(=O)O)C(=O)O` [glutathione, L-γ-glutamyl-L-cysteinylglycine], for which the “half-life in the blood” value is listed as “seconds to minutes”.
